In brackets after ≈: the same amount, converted by molar mass. Where two headings read alike, the source gives them in different places.
Tests used:
Group A Strep = assay: MIC against Group A Strep strain panel; type: cell-based
ATCC 29212 E. faecalis = assay: MIC against ATCC 29212 E. faecalis; type: cell-based
VRSA = assay: MIC against VRSA (Table 2); type: cell-based; details: Staphylococcus aureus, read-out: MIC (VRSA)
S. aureus 25923 = assay: Broth microdilution MIC, S. aureus 25923; type: cell-based, Staphylococcus aureus; details: Staphylococcus aureus, 25923, read-out: MIC (S. aureus 25923)
S. pneumoniae = assay: MIC against S. pneumoniae strain panel; type: cell-based; details: Streptococcus pneumoniae
S. aureus 29213 = assay: Broth microdilution MIC, S. aureus 29213; type: cell-based, Staphylococcus aureus
MRSA 33591 = assay: Broth microdilution MIC, MRSA 33591; type: cell-based; details: Staphylococcus aureus, read-out: MIC (MRSA 33591)
MRSA = assay: MIC against MRSA strain panel; type: cell-based; details: Staphylococcus aureus, the 4th table
Group B Strep = assay: MIC against Group B Strep strain panel; type: cell-based

CN[C@H](CC(C)C)C(=O)N[C@H]1C(=O)N[C@@H](CC(N)=O)C(=O)N[C@H]2C(=O)N[C@H]3C(=O)N[C@H](C(=O)N[C@H](C(=O)O)c4cc(O)cc(O)c4-c4cc3ccc4O)[C@H](O)c3ccc(c(Cl)c3)Oc3cc2cc(c3O[C@@H]2O[C@H](CO)[C@@H](O)[C@H](O)[C@H]2O[C@H]2C[C@](C)(N)[C@H](O)[C@H](C)O2)Oc2ccc(cc2Cl)[C@H]1O [Vancomycin, vancomycin, reference compound]
MIC (Group A Strep): 0.25 µg/mL (≈ 0.173 µM) | MIC (Group A Strep; 2007-11 Group A Strep, the 8th table): 0.25 µg/mL (≈ 0.173 µM) | MIC (Group A Strep; 2007-28 Group A Strep, the 8th table): 0.25 µg/mL (≈ 0.173 µM) | MIC (Group A Strep; 2007-49 Group A Strep, the 8th table): 0.25 µg/mL (≈ 0.173 µM) | MIC (Group A Strep; 2007-73 Group A Strep, the 8th table): 0.25 µg/mL (≈ 0.173 µM) | MIC (Group A Strep; 2007-107 Group A Strep, the 8th table): 0.25 µg/mL (≈ 0.173 µM) | MIC (Group A Strep; 2007-1101 Group A Strep, the 8th table): 0.25 µg/mL (≈ 0.173 µM) | MIC (Group A Strep; 2008-06 Group A Strep, the 8th table): 0.25 µg/mL (≈ 0.173 µM) | MIC (Group A Strep; 2008-45 Group A Strep, the 8th table): 0.25 µg/mL (≈ 0.173 µM) | MIC (Group A Strep; 2008-818 Group A Strep, CA-MHB w/5% LHB, the 4th table): 0.25 µg/mL (≈ 0.173 µM) | MIC (Group A Strep; 2008-1565 Group A Strep, the 8th table): 0.25 µg/mL (≈ 0.173 µM) | MIC (Group A Strep; 2008-1692 Group A Strep, the 8th table): 0.25 µg/mL (≈ 0.173 µM) | MIC (Group A Strep; 2009-8 Group A Strep, the 8th table): 0.25 µg/mL (≈ 0.173 µM) | MIC (Group A Strep; 2009-37 Group A Strep, CA-MHB w/5% LHB, the 4th table): 0.25 µg/mL (≈ 0.173 µM) | MIC (Group A Strep; 2009-106 Group A Strep, the 8th table): 0.25 µg/mL (≈ 0.173 µM) | MIC (Group A Strep; 2009-109 Group A Strep, the 8th table): 0.25 µg/mL (≈ 0.173 µM) | MIC (Group A Strep; 2009-114 Group A Strep, the 8th table): 0.25 µg/mL (≈ 0.173 µM) | MIC (Group A Strep; 2009-136 Group A Strep, the 8th table): 0.25 µg/mL (≈ 0.173 µM) | MIC (ATCC 29212 E. faecalis; ATCC 29212 E. faecalis, the 6th table): 2 µg/mL (≈ 1.38 µM) | MIC (ATCC 29212 E. faecalis; Enterococcus faecalis, ATCC29212): 2 µg/mL (≈ 1.38 µM) | MIC (VRSA): 64 µg/mL (≈ 44.2 µM) | MIC (S. aureus 25923): 2 µg/mL (≈ 1.38 µM) | MIC (S. pneumoniae; ATCC49619, ATCC 49619 S. pneumoniae, CA-MHB w/5% LHB, the 4th table): 0.25 µg/mL (≈ 0.173 µM) | MIC (S. pneumoniae; ATCC49619, ATCC 49619 S. pneumoniae, the 7th table): ≤ 0.125 µg/mL | MIC (S. pneumoniae; CO314937 S. pneumoniae, CA-MHB w/5% LHB, the 4th table): 0.25 µg/mL (≈ 0.173 µM) | MIC (S. pneumoniae; CT3-5008 S. pneumoniae, the 7th table): 0.25 µg/mL (≈ 0.173 µM) | MIC (S. pneumoniae; CT3-5803 S. pneumoniae, the 7th table): 0.25 µg/mL (≈ 0.173 µM) | MIC (S. pneumoniae; CT3-8501 S. pneumoniae, the 7th table): 0.25 µg/mL (≈ 0.173 µM) | MIC (S. pneumoniae; CT4-3048 S. pneumoniae, the 7th table): 0.5 µg/mL (≈ 0.345 µM) | MIC (S. pneumoniae; CT4-9046 S. pneumoniae, the 7th table): 0.25 µg/mL (≈ 0.173 µM) | MIC (S. pneumoniae; CT4-9693 S. pneumoniae, the 7th table): 0.25 µg/mL (≈ 0.173 µM) | MIC (S. pneumoniae; CT5-6541 S. pneumoniae, the 7th table): 0.25 µg/mL (≈ 0.173 µM) | MIC (S. pneumoniae; CT5-8032 S. pneumoniae, the 7th table): 0.5 µg/mL (≈ 0.345 µM) | MIC (S. pneumoniae; CT5-9124 S. pneumoniae, the 7th table): 0.25 µg/mL (≈ 0.173 µM) | MIC (S. pneumoniae; CT6-0670 S. pneumoniae, the 7th table): 0.5 µg/mL (≈ 0.345 µM) | MIC (S. pneumoniae; CT6-7691 S. pneumoniae, the 7th table): 0.25 µg/mL (≈ 0.173 µM) | MIC (S. pneumoniae; CT0200-2241 S. pneumoniae, the 7th table): 0.25 µg/mL (≈ 0.173 µM) | MIC (S. pneumoniae; CT0200-2730 S. pneumoniae, the 7th table): 0.25 µg/mL (≈ 0.173 µM) | MIC (S. pneumoniae; MD77773 S. pneumoniae, CA-MHB w/5% LHB, the 4th table): 0.5 µg/mL (≈ 0.345 µM) | MIC (S. aureus 29213; Staphylococcus aureus, 29213, read-out: MIC (S. aureus 29213)): 1 µg/mL (≈ 0.69 µM) | MIC (S. aureus 29213; Staphylococcus aureus, ATCC 29213 / MRSA): 0.5 µg/mL (≈ 0.345 µM) | MIC (MRSA 33591): 2 µg/mL (≈ 1.38 µM) | MIC (MRSA; 6215 MRSA): 1 µg/mL (≈ 0.69 µM) | MIC (MRSA; 6217 MRSA): 1 µg/mL (≈ 0.69 µM) | MIC (MRSA; 6218 MRSA): 1 µg/mL (≈ 0.69 µM) | MIC (MRSA; 6220 MRSA): 0.5 µg/mL (≈ 0.345 µM) | MIC (MRSA; 6231 MRSA): 0.5 µg/mL (≈ 0.345 µM) | MIC (MRSA; AR-978 MRSA): 1 µg/mL (≈ 0.69 µM) | MIC (MRSA; AR-979 MRSA): 1 µg/mL (≈ 0.69 µM) | MIC (MRSA; AR-993 MRSA): 1 µg/mL (≈ 0.69 µM) | MIC (MRSA; AR-997 MRSA): 1 µg/mL (≈ 0.69 µM) | MIC (Group B Strep; 2008-57 Group B Strep, the 9th table): 0.5 µg/mL (≈ 0.345 µM) | MIC (Group B Strep; 2008-70 Group B Strep, the 9th table): 0.5 µg/mL (≈ 0.345 µM) | MIC (Group B Strep; 2008-87 Group B Strep, CA-MHB w/5% LHB, the 4th table): 0.5 µg/mL (≈ 0.345 µM) | MIC (Group B Strep; 2008-115 Group B Strep, the 9th table): 0.5 µg/mL (≈ 0.345 µM) | MIC (Group B Strep; 2009-20 Group B Strep, the 9th table): 0.5 µg/mL (≈ 0.345 µM) | MIC (Group B Strep; 2009-40 Group B Strep, the 9th table): 0.5 µg/mL (≈ 0.345 µM) | MIC (Group B Strep; 2009-43 Group B Strep, the 9th table): 0.5 µg/mL (≈ 0.345 µM) | MIC (Group B Strep; 2009-51 Group B Strep, the 9th table): 0.5 µg/mL (≈ 0.345 µM) | MIC (Group B Strep; 2009-57 Group B Strep, the 9th table): 0.5 µg/mL (≈ 0.345 µM) | MIC (Group B Strep; 2009-59 Group B Strep, the 9th table): 0.5 µg/mL (≈ 0.345 µM) | MIC (Group B Strep; 2009-60 Group B Strep, the 9th table): 0.5 µg/mL (≈ 0.345 µM)
